The source of these data is publication PMC8757360 (ACS Omega, 2021).

In one series the test system is MDA-MB-231. Kind of series: MTT cytotoxicity, MDA-MB-231. It is filed as cell-based. As to conditions: Homo sapiens, MDA-MB-231, 72 h, read-out: IC50 MDA-MB-231.
The subject of the next series is A549. Kind of series: MTT cytotoxicity, A549. Conditions: Homo sapiens, A549, 72 h, read-out: IC50 A549. It counts as cell-based.
A further series has as its system HEK-293T-ACE2h cells. Conditions: human.
The subject of the next series is T47D. In words: MTT cytotoxicity, T47D. Conditions: for IC50: Homo sapiens, T47D, 72 h, read-out: IC50 T47D; for cytotoxic effect, fold more potent than berberine: T47D cells, versus positive control berberine.
For the next series, the system named is MCF-7. In words: MTT cytotoxicity, MCF-7. Conditions: for IC50: Homo sapiens, MCF7, 72 h, read-out: IC50 MCF-7.
Series [1] concerns SARS-CoV-2 spike pseudovirus. It counts as cell-based.
For a further series, the target named is human ACE2 (Homo sapiens, UniProt Q9BYF1). Kind of series: biochemical. It counts as binding.
Chain of human ACE2 (Q9BYF1 18-805): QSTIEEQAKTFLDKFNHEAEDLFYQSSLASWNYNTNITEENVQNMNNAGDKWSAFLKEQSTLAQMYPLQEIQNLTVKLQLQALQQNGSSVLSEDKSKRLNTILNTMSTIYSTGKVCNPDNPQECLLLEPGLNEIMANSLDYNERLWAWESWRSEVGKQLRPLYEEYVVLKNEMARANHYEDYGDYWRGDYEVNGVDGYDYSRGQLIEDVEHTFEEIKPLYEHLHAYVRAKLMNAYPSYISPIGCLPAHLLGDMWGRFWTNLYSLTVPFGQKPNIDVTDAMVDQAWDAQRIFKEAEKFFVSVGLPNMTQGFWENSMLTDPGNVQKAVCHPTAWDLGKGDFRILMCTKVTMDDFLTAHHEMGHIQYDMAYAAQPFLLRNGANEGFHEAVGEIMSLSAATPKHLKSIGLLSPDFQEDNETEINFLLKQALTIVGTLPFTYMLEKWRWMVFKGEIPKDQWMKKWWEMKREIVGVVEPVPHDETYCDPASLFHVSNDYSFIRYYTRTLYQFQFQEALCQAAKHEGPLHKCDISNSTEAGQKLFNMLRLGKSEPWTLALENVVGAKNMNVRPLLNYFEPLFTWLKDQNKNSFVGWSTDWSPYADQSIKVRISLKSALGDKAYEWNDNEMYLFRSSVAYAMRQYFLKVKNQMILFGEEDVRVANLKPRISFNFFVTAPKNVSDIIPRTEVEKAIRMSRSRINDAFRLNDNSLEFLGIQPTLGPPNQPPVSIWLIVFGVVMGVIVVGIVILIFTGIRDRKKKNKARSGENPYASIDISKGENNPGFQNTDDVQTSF
The target in another series is SARS-CoV-2 spike RBD (Severe acute respiratory syndrome coronavirus 2, UniProt P0DTC2). Kind of series: biochemical. It counts as binding.
The test system of series [2] is MCF-7, T47D, MDA-MB-231, and A549. In words: MTT cytotoxicity, range stated over four cancer cell lines. It is filed as cell-based. As to conditions: Homo sapiens, 72 h, read-out: IC50 values ranging over four cancer cell lines.

The IC50 is the concentration that gives 50% inhibition. The Kd is the constant that tells how readily two partners part at equilibrium. Low values mean a tighter complex, high ones a looser complex.

Regarding `c1ccc(-c2nc3ccccc3nc2-c2ccc3ccccc3c2)cc1` [4pa, 2-(Naphthalen-2-yl)-3-phenylquinoxaline], the 50% inhibitory concentration (IC50) in the series on MDA-MB-231, with A549, in the series on T47D and with MCF-7 was more than 50 µM in each case. Besides, the “CC0 (maximum nontoxic concentration)” value in the series on HEK-293T-ACE2h cells is more than 25 µM. Further, the “TC50 (concentration that caused 50% cells' death)” value with HEK-293T-ACE2h cells was more than 250 µM.
With `Fc1ccc(-c2nc3ccccc3nc2-c2ccccc2)cc1` [4ka, 2-(4-Fluorophenyl)-3-phenylquinoxaline], in the series with HEK-293T-ACE2h cells, the “CC0 (maximum nontoxic concentration)” value was 25 µM and the “TC50 (concentration that caused 50% cells' death)” value is more than 100 µM.
Regarding `COC(=O)c1ccc2nc(-c3ccccc3)c(-c3ccccc3)nc2c1` [4af, Methyl 2,3-diphenylquinoxaline-6-carboxylate], the IC50 in the series on MDA-MB-231, with A549, in the series with T47D and in the series on MCF-7 was more than 50 µM each time. Besides, the “CC0 (maximum nontoxic concentration)” value in the series with HEK-293T-ACE2h cells was 100 µM. The “TC50 (concentration that caused 50% cells' death)” value in the series with HEK-293T-ACE2h cells was more than 100 µM.
`Brc1ccc(-c2nc3ccccc3nc2-c2ccccc2)cc1` [4ja, 2-(4-Bromophenyl)-3-phenylquinoxaline]: in the series on HEK-293T-ACE2h cells, the “CC0 (maximum nontoxic concentration)” value turned out to be 25 µM and the “TC50 (concentration that caused 50% cells' death)” value was more than 100 µM.
For the compound `Clc1ccc2nc(-c3ccccc3)c(-c3ccccc3)nc2c1` [4ad, 6-Chloro-2,3-diphenylquinoxaline], the “SI (selectivity index, TC50/IC50)” value in [1] is on record as more than 23.49. Besides, the results for the equilibrium dissociation constant (Kd) at human ACE2 and at SARS-CoV-2 spike RBD were 4.02 ± 2.03 µM and 8.16 ± 1.34 µM, respectively. Moreover, the IC50 in the series on MDA-MB-231, in the series with A549, in the series on T47D and with MCF-7 was more than 50 µM in each case. Further, the “CC0 (maximum nontoxic concentration)” value in the series on HEK-293T-ACE2h cells is more than 25 µM. Moreover, in the series on HEK-293T-ACE2h cells, the “TC50 (concentration that caused 50% cells' death)” value is more than 500 µM.
On to `c1ccc(-c2nc3ccccc3nc2-c2ccsc2)cc1` [4ra, 2-Phenyl-3-(thiophen-3-yl)quinoxaline], for which the IC50 in the series on MDA-MB-231, in the series on A549, in the series on T47D and in the series with MCF-7 was more than 50 µM throughout. For the same compound, the “CC0 (maximum nontoxic concentration)” value in the series with HEK-293T-ACE2h cells came to 62.5 µM. For the same compound, the “TC50 (concentration that caused 50% cells' death)” value in the series with HEK-293T-ACE2h cells amounted to 337.06 ± 15.49 µM.
Turning to `COc1ccc(-c2nc3ccccc3nc2-c2ccccc2)cc1` [4ca, 2-(4-Methoxyphenyl)-3-phenylquinoxaline], the “SI (selectivity index, TC50/IC50)” value in series [1] is given as 14.05. The Kd at human ACE2 is 3.67 ± 0.66 µM; at SARS-CoV-2 spike RBD, 15.5 ± 1.14 µM. The IC50 in the series on MDA-MB-231 was 48.8 ± 1.01 µM; in the series on A549, more than 50 µM; in the series on T47D, more than 50 µM; in the series with MCF-7 it was more than 50 µM. Besides, in the series on HEK-293T-ACE2h cells, the “CC0 (maximum nontoxic concentration)” value came to 125 µM. For the same compound, the “TC50 (concentration that caused 50% cells' death)” value in the series with HEK-293T-ACE2h cells came to 276.90 ± 13.45 µM.
In the case of `COc1ccc2cc3[n+](cc2c1OC)CCc1cc2c(cc1-3)OCO2` [berberine, reference compound], the half-inhibitory concentration (IC50) in the series with MDA-MB-231 was found to be 18 ± 1.91 µM; with A549, 5.22 ± 0.44 µM; in the series with T47D, 26.7 ± 2.45 µM; in the series with MCF-7, 14.3 ± 1.44 µM.
Regarding `c1ccc(-c2nc3cc4ccccc4cc3nc2-c2ccccc2)cc1` [4ag, 2,3-Diphenylbenzo[g]quinoxaline], the concentration for half-maximal inhibition (IC50) in the series with MDA-MB-231 was 45 ± 1.57 µM; in the series with A549, 44.5 ± 3.55 µM; in the series on T47D, 20.5 ± 1.64 µM; in the series on MCF-7, more than 50 µM. Also, in the series with HEK-293T-ACE2h cells, the “CC0 (maximum nontoxic concentration)” value was found to be 50 µM. The “TC50 (concentration that caused 50% cells' death)” value in the series on HEK-293T-ACE2h cells turned out to be 107.20 ± 1.64 µM.
Consider `Clc1ccc(-c2nc3ccccc3nc2-c2ccccc2)cc1` [4ia, 2-(4-Chlorophenyl)-3-phenylquinoxaline], for which the IC50 with MDA-MB-231 was 17.8 ± 0.69 µM; in the series on A549 it was 18.6 ± 0.25 µM; in series [2], 6.25 to 28.6 µM; in the series on T47D, 6.25 ± 0.73 µM; in the series on MCF-7, 7.3 ± 1.1 µM. Also, the “CC0 (maximum nontoxic concentration)” value in the series on HEK-293T-ACE2h cells worked out at 25 µM. In addition, in the series on HEK-293T-ACE2h cells, the “TC50 (concentration that caused 50% cells' death)” value amounted to 115.20 ± 9.72 µM. For the same compound, the “cytotoxic effect, fold more potent than berberine” value in the series on T47D was 4.27 fold; in the series with MCF-7 (MCF-7 cells, versus positive control berberine) it was 1.96 fold.
In the case of `c1ccc(-c2nc3ccccc3nc2-c2ccccc2)cc1` [4aa, 2,3-Diphenylquinoxaline], the Kd turned out to be 5890 ± 1670 µM at human ACE2 and 1000 ± 761 µM on SARS-CoV-2 spike RBD. For the same compound, the half-maximal inhibitory concentration (IC50) was 28.6 ± 1.85 µM in the series on MDA-MB-231; 26.3 ± 1.96 µM with A549; 6.25 to 28.6 µM in series [2]; 11.4 ± 1.17 µM with T47D; 16.7 ± 1.34 µM in the series on MCF-7. The “CC0 (maximum nontoxic concentration)” value with HEK-293T-ACE2h cells is more than 250 µM. Moreover, in the series on HEK-293T-ACE2h cells, the “TC50 (concentration that caused 50% cells' death)” value was more than 25 µM.
With `Cc1ccc(-c2nc3ccccc3nc2-c2ccccc2)cc1` [4ba, 2-Phenyl-3-(p-tolyl)quinoxaline], the IC50 was 21.4 ± 1.19 µM with MDA-MB-231; 24.1 ± 1.11 µM with A549; 6.25 to 28.6 µM in [2]; 9.76 ± 1.3 µM in the series on T47D; 15.7 ± 1.18 µM in the series on MCF-7. The “CC0 (maximum nontoxic concentration)” value in the series with HEK-293T-ACE2h cells was found to be 125 µM. The “TC50 (concentration that caused 50% cells' death)” value in the series with HEK-293T-ACE2h cells is 271.67 ± 13.00 µM.
As for `COc1ccc2nc(-c3ccccc3)c(-c3ccccc3)nc2c1` [4ac, 6-Methoxy-2,3-diphenylquinoxaline], the half-maximal inhibitory concentration (IC50) in the series on MDA-MB-231, in the series with A549, in the series with T47D and with MCF-7 was more than 50 µM in each case. The “CC0 (maximum nontoxic concentration)” value in the series with HEK-293T-ACE2h cells stood at 50 µM. Moreover, in the series with HEK-293T-ACE2h cells, the “TC50 (concentration that caused 50% cells' death)” value turned out to be 116.03 ± 4.28 µM.
Turning to `Cc1ccc2nc(-c3ccccc3)c(-c3ccccc3)nc2c1` [4ab, 6-Methyl-2,3-diphenylquinoxaline], the IC50 in the series on MDA-MB-231 is 18.2 ± 1.34 µM; in the series with A549, 19.7 ± 1.28 µM; in series [2] it was 6.25 to 28.6 µM; in the series with T47D, 6.77 ± 0.57 µM; in the series on MCF-7, 10 ± 0.55 µM. Also, the “CC0 (maximum nontoxic concentration)” value in the series with HEK-293T-ACE2h cells is 62.5 µM. Moreover, the “TC50 (concentration that caused 50% cells' death)” value in the series on HEK-293T-ACE2h cells turned out to be 288.40 ± 17.65 µM. Besides, the “cytotoxic effect, fold more potent than berberine” value in the series on T47D was 3.94 fold.
With `c1ccc(-c2ccc(-c3nc4ccccc4nc3-c3ccccc3)cc2)cc1` [4ha, 2-([1,1′-Biphenyl]-4-yl)-3-phenylquinoxaline], the “SI (selectivity index, TC50/IC50)” value in [1] is listed as more than 3.50. For the same compound, the values for the dissociation constant (Kd) on human ACE2 and at SARS-CoV-2 spike RBD were 238 ± 57.3 µM and 135 ± 17.7 µM, respectively. Besides, the half-maximal inhibitory concentration (IC50) in the series with MDA-MB-231, with A549, with T47D and in the series on MCF-7 was more than 50 µM throughout. Besides, in the series on HEK-293T-ACE2h cells, the “CC0 (maximum nontoxic concentration)” value is more than 250 µM. For the same compound, the “TC50 (concentration that caused 50% cells' death)” value in the series on HEK-293T-ACE2h cells was more than 500 µM.
As for `N#Cc1ccc2nc(-c3ccccc3)c(-c3ccccc3)nc2c1` [4ae, 2,3-Diphenylquinoxaline-6-carbonitrile], the IC50 in the series on MDA-MB-231, with A549, with T47D and in the series with MCF-7 was more than 50 µM in each case. Further, in the series with HEK-293T-ACE2h cells, the “CC0 (maximum nontoxic concentration)” value worked out at 125 µM. The “TC50 (concentration that caused 50% cells' death)” value with HEK-293T-ACE2h cells turned out to be 303.27 ± 9.51 µM.
Take `C=CCc1cc(-c2cc(CC=C)c3oc(=O)n(Cc4nnc(-c5ccc(OC)cc5)o4)c3c2)c2oc(=O)n(Cc3nnc(-c4ccc(OC)cc4)o3)c2c1` [6p, 5′,7-Diallyl-3,3′-bis((5-(4-methoxyphenyl)-1,3,4-oxadiazol-2-yl)methyl)-[5,7′-bibenzo[d]oxazole]-2,2′(3H,3′H)-dione, reference compound]: in series [1], the “SI (selectivity index, TC50/IC50)” value is listed as more than 8.40. In the series with HEK-293T-ACE2h cells, the “CC0 (maximum nontoxic concentration)” value is more than 100 µM and the “TC50 (concentration that caused 50% cells' death)” value was more than 100 µM.
